# Results taken from patent US20110152345A1, “EBI3, DLX5, NPTX1 AND CDKN3 FOR TARGET GENES OF LUNG CANCER THERAPY AND DIAGNOSIS” (Oncotherapy Science, Inc., priority 2007, published 2011).
# Experiments:
# LC319 cells = test: MTT assay of LC319 cells treated with cell-permeable 11R-EF-1delta peptides; format: cell-based, human; settings: peptide 2.5, 5.0 and 7.5 micro M for 5 days
# Text: 19-amino acid peptide sequence corresponding to a part of EF-1delta protein that contained possible binding sites of CDKN3 were covalently linked at its NH2-terminus to a membrane transducing 11 poly-arginine sequence (11R; refs. Futaki et al., Hayama et al., 2006, 2007). Five cell permeable peptides were synthesized: 11R-EF-1delta73-91, RRRRRRRRRRR-GGG-TSGDHGELVVRIASLEVEN; 11R-EF-1delta90-108, RRRRRRRRRRR-GGG-ENQSLRGVVQELQQAISKL; 11R-EF-1delta108-126, RRRRRRRRRRR-GGG-LEARLNVLEKSSPGHRATA; 11R-EF-1delta125-143, RRRRRRRRRRR-GGG-TAPQTQHVSPMRQVEPPAK; 11R-EF-1delta142-160, RRRRRRRRRRR-GGG-AKKPATPAEDDEDDDIDLF. Peptides were purified by preparative reverse-phase high-pressure liquid chromatography. LC319 cells were incubated with the 11R peptides at the concentration of 2.5, 5.0 and 7.5 micro M for 5 days. The medium was changed at every 48 hours at the appropriate concentrations of each peptide and the viability of cells was evaluated by MTT assay at 5 days after the treatment. 12. Immunoprecipitation and MALDI-TOF-MS mapping of CDKN3-Associated Proteins.
# CDKN3 and EF-1delta = target: T1, CDKN3 and EF-1delta (Homo sapiens, UniProt Q16667); test: Immunoprecipitation of endogenous CDKN3 and EF-1delta complex in peptide-treated LC319 cells; format: cell-based; settings: peptide added to culture medium
# T1 construct: between endogenous CDKN3 and EF-1delta proteins in LC319 cells; endogenous in cells; host or cells: LC319 (human lung adenocarcinoma cell line)
# T1 sequence (Q16667 1-212): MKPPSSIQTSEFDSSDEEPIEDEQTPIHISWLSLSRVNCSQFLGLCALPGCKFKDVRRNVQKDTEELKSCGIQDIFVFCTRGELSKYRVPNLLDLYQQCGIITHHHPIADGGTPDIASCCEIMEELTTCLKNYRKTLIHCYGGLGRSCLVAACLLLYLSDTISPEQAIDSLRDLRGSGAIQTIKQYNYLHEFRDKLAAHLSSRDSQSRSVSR
# Text: FIG. 24: Identifies the CDKN3-binding region in EF-1delta. Part A presents a schematic drawing of five cell permeable peptides linked covalently at its NH2-terminus to a membrane transducing 11 poly-arginine sequence. The sequence of leucine zipper motif in EF-1delta and five cell permeable peptides derived from EF-1delta are shown. Part B presents the viability of LC319 cells evaluated by MTT assay in response to five cell permeable peptides (upper panel). Reduction of the complex formation detected by immunoprecipitation between endogenous CDKN3 and EF-1delta proteins in LC319 cells that were treated with the 11R-EF-1delta90-108 peptides (lower panel).
# Then, to investigate the functional significance of interaction between CDKN3 and EF-1delta for growth or survival of lung-cancer cells, bioactive cell-permeable peptides expected to inhibit the binding of these two proteins were developed. Next 5 different peptides of 19 amino acid sequence that included in codons 73-160 of EF-1delta were synthesized (FIG. 24A). These peptides were covalently linked at NH2-terminalus to a membrane transducing 11 arginine-residues (11R).
substance,measurement,setting,value
RRRRRRRRRRR-GGG-ENQSLRGVVQELQQAISKL (RRRRRRRRRRRGGGENQSLRGVVQELQQAISKL) [11R-EF-1delta90-108],cell viability (MTT assay),LC319 cells,significant decreases
same,complex formation between endogenous CDKN3 and EF-1delta,CDKN3 and EF-1delta,reduced complex formation
